Reference: patent publication US7470434B1, “Methods and compositions for blocking microbial adherence to eukaryotic cells” (priority 2007, dated 2008)

How the values were obtained:
Assay type in all cases: in vivo, human
[1] = tested on: diarrheal agent (nature not known); assay: Amelioration of infectious diarrhea by oral isoleucine solution
Experimental: In this example isoleucine was administered to treat infectious diarrhea. In this example three individuals were naturally innoculated by a common agent. The nature of the diarrheal agent is not known. The duration of diarrhea was consistent with an infectious etiology. Isoleucine was utilized based on the hypothesis that reduction in microbial adherence would likely limit the continued re-infection of the gut wall by the agent, and/or prevent attachment of opportunistic commensal organisms.
Three members of a family traveling in the Middle East (MZ, BZ, JZ) contracted watery diarrhea, associated with food intolerance, following a meal they shared at a restaurant. Each individual had been in excellent health without prior history of GI complaints. All were unmedicated, including aspirin or antihistanines. […] Diarrhea was watery, without gross blood, minimal mucous, slight fever with chills, no nausea, and persistence of hunger. Peristalsis was vigorous and increased by ingestion of food. Each individual was placed on a diet restricted to clear liquids (juices and soda), digestible carbohydrates (bread, rice, candy). No medications were administered.
Six days after ingestion of the diarrheal agent, one individual was begun on oral isoleucine (ILE) therapy, while the other two continued on restricted diets. ILE (#E-2025 Bachem, lot 511191) was dissolved in distilled water to 0.001%. One glass of ILE solution (about 250 ml) was consumed every several hours. A total of about 4 liters was consumed over 3½ days. A reduction in stool frequency was noted within 12 hours of initiation of ILE therapy.
BZ and JZ both continued to experience diarrhea unabated until about 11 days after ingestion of the infectious agent, with stool frequency decreasing noticeably. […] Thus, isoleucine therapy was associated with a shortening of the duration of diarrhea by approximately three days.

[2] = tested on: bacterial vaginosis; assay: Amelioration of bacterial vaginosis by local isoleucine powder
Experimental: In this example isoleucine was administered locally to the vagina to treat the symptoms of bacterial vaginosis. By inhibiting the adherence of bacteria to the wall of the vagina, microbial growth, inflammation, and associated signs of malodorous discharge and symptoms such as pruritis can be treated. A person, with a normal menstrual cycle and in excellent health, experienced vaginal irritation and malodorous discharge associated with their cycle, generally beginning several days prior to the onset of their period. Isoleucine was self-administered as a powder locally within the vaginal cavity digitally, twice a day. Within 2 days symptoms of vaginosis disappeared. Isoleucine therapy was continued for several days following termination of menstrual discharge, and then stopped. […] Isoleucine was again administered during the following months, cycled as described initially.

[3] = tested on: bacteria adherent to gingival epithelial cells; assay: Treatment of gingival infection: microbial adherence to gingival epithelial cells (Giemsa-stained gingival scrapings); conditions: for Gingival epithelial cells with 0 Bacteria / Gingival epithelial cells with 1-10 Bacteria / Gingival epithelial cells with 10-100 Bacteria / Gingival epithelial cells with Contiguous lawn: powder on gums twice daily
Excerpt: In this example isoleucine was applied as a pure crystalline powder directly to the gums. The individuals were normal human volunteers. Each individual had clinically evident low grade gingivitis, as determined by the puffiness of the gingival margin and a history of some bleeding during normal dental brushing. Oral health care comprised twice daily flossing and dental brushing with a non-medicated toothpaste. No oral antiseptic was used. The individuals were not taking antibiotics. Isoleucine was applied by application of powder on the fingertip to the outer and inner gum margins of the upper and lower jaws. The entirety of the gingival surface was covered manually, twice daily. The AM application was performed following breakfast, immediately after brushing. The PM application was conducted prior to retiring for sleep.
Gingival surface was gently scrapped with the side of a rectangular glass cover slip and the material described was applied to a glass microscope slide and air-dried. The slide was stained in concentrated Giemsa stain for 1 min, then destained in water for 5 min. The slide was then air-dried and mounted with a cover slip cemented with Permount. Slides were examined by light microscopy at 100× and 400× magnification. Under these staining conditions bacteria were clearly visualized as dark blue particles against the pale gray epithelial cells.
Gingival scrapings were taken in the morning prior to normal oral care and prior to eating. Prior to scraping, the subject rinsed the mouth with a cup of water to wash free particulate matter, unattached cells, and bacteria.
Scrapings were taken 3 days and 1 day prior to isoleucine administration and 1, 3, 5, and 7 days during isoleucine application. […] The bacteria adherent were represented by several different species, distinguished by morphology. […] At least 200 bacteria were counted on the average on each cell.

[4] = Amelioration of irritable bowel syndrome by isoleucine in yogurt
Experimental: In this example isoleucine was administered to individuals who experienced irritable bowel syndrome (IBS). IBS is a loosely defined condition associated with bowel discomfort including abdominal bloating, nausea, pain and a sense of incomplete bowel movements. The etiology underlying IBS is unknown. It is our hypothesis that IBS results from adherence of certain “pathogenic” commensal organisms to the epithelial lining of certain segments of the GI tract, resulting in disturbance of normal host-bacteria relationships. […] Two women, each in their mid-50's, presented with a history of IBS of over 20 years, in each case. In each, IBS was characterized by a sense of bloating experienced after eating cooked or raw vegetables, fruits, and meat. Each individual experienced urgency to move her bowels several times a day to an extent that often awakened the individuals from sleep. Bloating was accompanied by abdominal discomfort, described as mild cramps. Individuals felt “gassy” most of the day. Each individual was given isoleucine, 1 tsp, twice a day, each dose mixed in ½ cup of yogurt. The yogurt was included to promote reinoculation of the GI tract with probiotic “good” bacteria. In each case, it was known from previous experience that yogurt itself had little effect on the IBS experienced by these individuals. Within 2 day so isoleucine administration, bloating, urgency to defecate, and gassiness had disappeared. Both individuals described the state of their bowel function as “normal”, for the first time in 20 years. […] Each was then withdrawn from isoleucine, and provided yogurt unsupplemented with isoleucine. Within about 2 days both women recorded a reappearance of the former symptoms of IBS.

[5] = 3rd day of ILE therapy, individual
[6] = Day 1 of isoleucine application
[7] = Day 3 of isoleucine application
[8] = Day 7 of isoleucine application

With `CC[C@H](C)[C@H](N)C(=O)O` [isoleucine] the Food tolerance [1, 5] was “cheese and chicken tolerated”, the Stools passed [1, 5] was “no stools were passed” and the “Shortening of the duration of diarrhea” value ([1]; MZ on isoleucine versus BZ and JZ on restricted diet only) was “approximately three”. The “Day following ILE treatment by which a normal stool was passed and the diarrheal episode had passed” value ([1]; individual MZ) was no more than 4 days, the “Time to reduction in stool frequency after initiation of ILE therapy” value ([1]; one individual, 0.001% ILE in distilled water, about 250 ml every several hours, begun six days after ingestion of agent) was no more than 12 h and the “Status following cessation of isoleucine administration” value ([2]; after therapy continued several days past menstrual discharge) was “remained symptom free”. The “Overall outcome of chronic vaginosis” value ([2]; repeated cycled administration in following months, based on symptoms and signs) was “effectively cured”, the “Gingival epithelial cells with 0 Bacteria” value [3, 6] was 0 % cells and the “Gingival epithelial cells with 1-10 Bacteria” value [3, 6] was 10 % cells. For the same compound, the “Gingival epithelial cells with 10-100 Bacteria” value [3, 6] was 10 % cells, the “Gingival epithelial cells with Contiguous lawn” value [3, 6] was 80 % cells and the “Adherent bacteria in gingival smear” value ([3]; Day 3) was “dramatic reduction”. The “Cells fully covered with bacteria, of 100 cells examined” value ([3]; Day 3) was 40, the “Microcolonies (contiguous groupings of greater than 4 organisms) on cells” value ([3]; Day 3) was “Few” and the “Neutrophils in gingival smear (sign of inflammation)” value ([3]; Day 3) was “No neutrophils were evident”. For the same compound, the “Total adherent bacteria per cell (most cells)” value ([3]; Day 3) was less than 100, the “Gingival epithelial cells with 0 Bacteria” value [3, 7] was 15 % cells and the “Gingival epithelial cells with 1-10 Bacteria” value [3, 7] was 15 % cells. The “Gingival epithelial cells with 10-100 Bacteria” value [3, 7] was 30 % cells, the “Gingival epithelial cells with Contiguous lawn” value [3, 7] was 40 % cells and the “Cells completely free of bacteria” value ([3]; Day 7) was 80%. For the same compound, the “Cells fully covered with adherent bacteria” value ([3]; Day 7) was 5%, the “Cells with 1 to 10 bacteria/cell” value ([3]; Day 7) was 15% and the “Breath as described by an examiner” value ([3]; Day 7, in the AM, prior to oral hygiene) was “free of odor”. The “Gingival epithelial cells with 0 Bacteria” value [3, 8] was 80 % cells, the “Gingival epithelial cells with 1-10 Bacteria” value [3, 8] was 15 % cells and the “Gingival epithelial cells with 10-100 Bacteria” value [3, 8] was 0 % cells. The “Gingival epithelial cells with Contiguous lawn” value [3, 8] was 5 % cells, the “Change in the number of epithelial cells covered with a dense coat of bacteria” value ([3]; gingival smear, Day 1 following initiation) was “little change” and the Response during maintenance ([4]; maintained on isoleucine for 1 month) was “consistent response”. The “State of bowel function as described by the individuals” value ([4]; on isoleucine 1 tsp twice a day in yogurt) was “normal” and the “Time to reappearance of former symptoms of IBS after withdrawal from isoleucine” value ([4]; yogurt unsupplemented with isoleucine) was no more than 2 days.
